Reference: patent publication US6916937B2, “Carbohydrate prodrugs of fluorooxindoles” (Bristol-Myers Squibb Company, priority 2003, dated 2005)

How the values were obtained:
[1] = system: cloned mammalian (mSlo or hSlo) BK channels; assay: Increase of BK-mediated outward current in Xenopus oocytes, two-electrode voltage clamp; format: cell-based; conditions: 10 μM; at least 5 oocytes; mSlo or hSlo expressed in Xenopus oocytes
Experimental: (§1) The ability of the compound of Formula II to open BK channels and increase whole-cell outward (K^+) BK-mediated currents was assessed under voltage-clamp conditions by determining their ability to increase cloned mammalian (mSlo or hSlo) BK—mediated outward current heterologously expressed in Xenopus oocytes [Butler, A., et al., Science, 261, pp. 221-224 (1993); and Dworetzky, S. I., et al., Mol. Brain Res., 27, pp.189-193 (1994)]. The two BK constructs employed represent nearly structurally identical homologous proteins, and have proven to be pharmacologically identical in our tests. To isolate BK current from native (background, non-BK) current, the specific and potent BK channel-blocking toxin iberiotoxin (IBTX) [Galvez, A., et al., J. Biol. Chem, 265, pp.11083-11090 (1990)] was employed at a supramaximal concentration (50 nM). The relative contribution of BK channels current to total outward current was determined by subtraction of the current remaining in the presence of IBTX (non-BK current) from the current profiles obtained in all other experimental conditions (control, drug, and wash). […] The compound of Formula II was shown in at least 5 oocytes at a concentration of 10 μM to increase BK current to 170% of control of IBTX-sensitive current. […]

[2] = system: non-BK native currents in the oocytes; assay: Effect on non-BK native currents in oocytes (current remaining with IBTX); format: cell-based, Xenopus; conditions: at the tested concentration
Experimental: as §1

[3] = system: focal cerebral ischemia (MCAO) in the Wistar rat; assay: Focal stroke model, permanent MCA and CCA occlusion; format: in vivo; conditions: 0.3 mg/kg i.v. single bolus two hours after MCA occlusion; infarct measured 24 hours after MCAO
Experimental: To determine the ability of the compounds of the present invention to reduce cell loss resulting from neuronal ischemia, a standard focal cerebral ischemia is induced by permanent occlusion of the left middle cerebral artery (MCA) and common carotid artery (CCA) with one hour occlusion of the right CCA in the Wistar rat. The surgeries are performed using the sub-temporal approach of A. Tamura, et al., J. Cereb. Blood Flow Metab., 1, pp. 53-60, (1981) and its modifications [K. Osborne, et al., J. Neurol Neurosurg. Psychiatry, 50, pp. 402-410 (1987) and S. Menzies, et al., Neurosurgery, 31, pp. 100-107, (1992).]
The compound of Formula II was evaluated in the focal stroke model involving permanent occlusion of the left MCA (MCAO) and CCA (CCAO) and temporary occlusion of the right CCA in the Wistar rat [Gribkoff, et al. Nature Med. 7, pp. 471-477 (2001)]. This procedure results in a reliably large neocortical infarct volume that is measured by means of vital dye exclusion in serial slices through the brain 24 hours after MCAO. In the present test, compounds were administered using an i.v. or i.p. route of administration two hours after occlusion.

[4] = system: rat traumatic brain injury (TBI) model; conditions: Cheney et al. 2001; cited from earlier work

SMILES | BK current, % of control of IBTX-sensitive current [1] | Effect on non-BK native currents in the oocytes [2] | Reduction of cortical infarct volume vs vehicle-treated control [3] | Reduction in edema in regions adjacent to the impact zone [4]
COc1ccc(Cl)cc1C1(F)C(=O)Nc2cc(C(F)(F)F)ccc21 (racemic) [compound of Formula II, 3-(5-chloro-2-methoxyphenyl)-1,3-dihydro-3-fluoro-6-(trifluoromethyl)-2H-indol-2-one] | 170 % of control | did not effect | about 28% | –
COc1ccc(Cl)cc1[C@]1(F)C(=O)Nc2cc(C(F)(F)F)ccc21 [Compound of Formula (S)-II, (S)-3-(5-chloro-2-methoxy-phenyl)-3-fluoro-6-trifluoromethyl-1,3-dihydro-indol-2-one] | – | – | – | significant reductions in edema
